Experimental data from patent US9371305B2, “Deuterated benzopyran compounds and application thereof” (Guangzhou Institutes of Biomedicine And Health, Chinese …, priority 2012, dated 2016).
Read-outs that look alike come from different tables or passages of the source.

Tests used:
[1] = test system: generation of PGE2 in the whole blood; assay: whole blood assay, lipopolysaccharide-induced yield of PGE2 in heparin blood (ELISA); assay type: cell-based, human; settings: for IC50: Homo sapiens, read-out: inhibition IC50 onto generation of PGE2 in the whole blood test
Description: (§1) Deuterated benzopyran compounds of different concentrations were uniformly mixed with ovine COX-1 and human recombinant COX-2 for incubation for 15 min, respectively, and then the system was added with Heme and ADHP for incubation for another 2 min and finally added with substrate arachidonic acid. The light emission intensity of the reaction product at 595 nm was immediately detected by a microplate reader under exciting light at 530 nm. […] In the whole blood assay, venous blood of healthy donors was collected with a non-anticoagulation tube and a heparin tube, deuterated benzopyran compounds of different concentrations (1×10^−8 to 1×10^−4) were mixed with the blood in the non-anticoagulation tube, the supernatant was collected after the blood was coagulated and then measured by ELISA in terms of the yield of TXB2; and deuterated benzopyran compounds of different concentrations (1×10^−8 to 1×10^−4) were mixed with the blood in the heparin tube, the mixture was added with lipopolysaccharide until the final concentration was 100 μg/mL, mixed uniformly and then kept stand overnight at 37° C., the supernatant was collected by centrifugation and then measured by ELISA in terms of the yield of PGE2.

ovine COX-1 = target: T1, ovine COX-1 (Ovis aries, UniProt P05979); assay: COX-1 enzyme inhibition (ADHP fluorescence); assay type: biochemical
T1 sequence (P05979 25-600): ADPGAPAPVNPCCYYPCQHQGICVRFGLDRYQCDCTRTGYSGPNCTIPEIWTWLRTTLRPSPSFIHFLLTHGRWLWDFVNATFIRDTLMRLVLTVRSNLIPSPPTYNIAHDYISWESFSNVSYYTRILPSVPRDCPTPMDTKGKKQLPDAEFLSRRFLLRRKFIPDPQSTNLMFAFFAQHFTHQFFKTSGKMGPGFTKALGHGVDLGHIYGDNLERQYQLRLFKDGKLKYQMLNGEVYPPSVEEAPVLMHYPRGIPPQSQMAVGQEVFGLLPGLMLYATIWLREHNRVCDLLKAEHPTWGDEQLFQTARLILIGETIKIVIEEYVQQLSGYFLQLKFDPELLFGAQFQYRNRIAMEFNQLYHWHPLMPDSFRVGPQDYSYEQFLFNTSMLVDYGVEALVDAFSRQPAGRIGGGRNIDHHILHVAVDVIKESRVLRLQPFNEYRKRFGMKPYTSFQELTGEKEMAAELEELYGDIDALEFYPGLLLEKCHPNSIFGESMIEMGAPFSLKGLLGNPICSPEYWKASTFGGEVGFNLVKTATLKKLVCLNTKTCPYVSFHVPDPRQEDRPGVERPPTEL
Description: as §1, with “PGE2. […]” for “PGE2.”

[2] = test system: generation of TXB2 in the whole blood; assay: whole blood assay, yield of TXB2 in coagulated blood (ELISA); assay type: cell-based; settings: Homo sapiens, read-out: inhibition IC50 onto generation of TXB2 in the whole blood test
Description: as §1, with “PGE2. […]” for “PGE2.”

[3] = Test on pharmacokinetics and bioavailability of rats; assay type: in vivo, SD rats; settings: for Vd / BA / AUC / Cmax / Tmax / half-life / t½: male SD rats; for BA: oral, calculated according AUC data; for AUC / Cmax / Tmax / half-life / t½: oral administration; for half-life: read-out: t½ (converted)
Description: The blood samples employ acetonitrile to precipitate protein, 16000 rpm*30 min, and the supernatant is used for LC/MS analysis. Data is performed with parameter fitting by DAS2.0, and the bioavailability of oral administration of compounds is calculated according AUC data.

human recombinant COX-2 = target: T2, human recombinant COX-2 (Homo sapiens, UniProt P35354); assay: COX-2 enzyme inhibition (ADHP fluorescence); assay type: biochemical; settings: for IC50: human recombinant COX-2, 15 min incubation
T2 sequence (P35354 18-604): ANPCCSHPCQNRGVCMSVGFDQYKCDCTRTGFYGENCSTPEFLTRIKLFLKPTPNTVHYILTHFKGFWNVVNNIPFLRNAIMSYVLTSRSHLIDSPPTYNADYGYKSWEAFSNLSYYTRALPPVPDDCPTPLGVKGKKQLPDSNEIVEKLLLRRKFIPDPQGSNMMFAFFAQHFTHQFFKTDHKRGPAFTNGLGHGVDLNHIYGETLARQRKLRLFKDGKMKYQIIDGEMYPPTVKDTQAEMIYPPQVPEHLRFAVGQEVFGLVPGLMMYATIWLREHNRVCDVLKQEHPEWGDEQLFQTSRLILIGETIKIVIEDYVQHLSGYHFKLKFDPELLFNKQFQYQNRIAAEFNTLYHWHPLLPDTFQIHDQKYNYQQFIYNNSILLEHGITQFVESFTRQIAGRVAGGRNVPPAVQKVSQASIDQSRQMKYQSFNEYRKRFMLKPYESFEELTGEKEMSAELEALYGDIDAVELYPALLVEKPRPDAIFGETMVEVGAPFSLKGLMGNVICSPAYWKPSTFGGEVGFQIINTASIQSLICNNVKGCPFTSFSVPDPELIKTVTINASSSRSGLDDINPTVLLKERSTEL
Description: as §1

[4] = ovine COX-1, 15 min incubation, read-out: Inhibition IC50 COX-1
[5] = rat, plasma, single dose 25 mg/kg
[6] = rat, plasma, single dose 25 mg/kg, read-out: Cmax
[7] = rat, plasma, single dose 25 mg/kg, read-out: Tmax
[8] = blood of healthy donors, heparin tube, lipopolysaccharide 100 μg/mL, overnight at 37° C.
[9] = blood of healthy donors, non-anticoagulation tube
[10] = rat, plasma, single dose 10 mg/kg
[11] = rat, plasma, single dose 2.5 mg/kg
[12] = rat, plasma, single dose 2.5 mg/kg, read-out: Cmax
[13] = rat, plasma, single dose 2.5 mg/kg, read-out: Tmax

Vd ([3]; single dose 10 mg/kg) | Cmax ([3]; single dose 10 mg/kg) | Tmax ([3]; single dose 10 mg/kg) | t½ ([3]; single dose 10 mg/kg) | BA ([3]; single dose 10 mg/kg) | AUC [3, 10] | SMILES | IC50 [1] | IC50 (ovine COX-1; [4]) | IC50 [2] | IC50 [1, 8] | IC50 [2, 9] | IC50 (human recombinant COX-2) | BA ([3]; single dose 2.5 mg/kg) | AUC [3, 11] | Vd ([3]; single dose 2.5 mg/kg) | Cmax [3, 12] | Tmax [3, 13] | half-life [3, 11] | also measured
– | – | – | – | – | – | [2H]C([2H])([2H])c1ccc2c(c1)C=C(C(=O)O)C(C(F)(F)F)O2 (stereo not drawn) [GIBH-1004, 6-(methyl-D3)-2-(trifluoromethyl)-2H-chromence-3-carboxylic acid] | 67.5 µM | > 100 µM | > 100 µM | – | – | – | – | – | – | – | – | – | Vd ([3]; single dose 25 mg/kg): 0.58 L/kg; BA ([3]; single dose 25 mg/kg): 46.1%; AUC [3, 5]: 181000 ng·h/mL; Cmax [3, 6]: 34200 ng/mL; Tmax [3, 7]: 0.563 h; half-life [3, 5]: 2.88 h
– | – | – | – | – | – | [2H]C([2H])([2H])C([2H])([2H])c1cc(OC(F)(F)F)cc2c1OC(C(F)(F)F)C(C(=O)O)=C2 (stereo not drawn) [GIBH-1006, 8-(ethyl-D5)-6-(trifluoromethoxy)-2-(trifluoromethyl)-2H-chromene-3-carboxylic acid] | – | > 100 µM | – | 79.5 µM | 20.5 µM | – | – | – | – | – | – | – | Vd ([3]; single dose 25 mg/kg): 0.68 L/kg; BA ([3]; single dose 25 mg/kg): 78.6%; AUC value compared among the compounds (in words) ([3]; rat PK, doses differ between compounds): highest; AUC [3, 5]: 511000 ng·h/mL; Cmax [3, 6]: 29500 ng/mL; Tmax [3, 7]: 1.62 h; half-life [3, 5]: 9.54 h
0.26 L/kg | 20900 ng/mL | 1.167 h | 2.1 h | 92.8% | 118000 ng·h/mL | [2H]C([2H])([2H])c1cc2c(c(C([2H])([2H])[2H])c1Cl)C=C(C(=O)O)C(C(F)(F)F)O2 (stereo not drawn) [GIBH-1008, 6-chloro-5,7-(dimethyl-D6)-2-(trifluoromethyl)-2H-chromene-3-carboxylic acid] | – | > 100 µM | – | 78.5 µM | 65.1 µM | – | – | – | – | – | – | – | IC50 (ovine COX-1; read-out: IC50 value of COX-1): > 100 µM
0.57 L/kg | 21399 ng/mL | 0.5 h | 3.35 h | 111.8% | 84800 ng·h/mL | [2H]C([2H])([2H])c1cc2c(c(C([2H])([2H])[2H])c1Br)C=C(C(=O)O)C(C(F)(F)F)O2 (stereo not drawn) [GIBH-1010, 6-bromo-5,7-(dimethyl-D6)-2-(trifluoromethyl)-2H-chromene-3-carboxylic acid] | – | > 100 µM | – | > 100 µM | 38.9 µM | 0.0671 µM | – | – | – | – | – | – | –
– | – | – | – | – | – | [2H]C([2H])([2H])c1cc(Cl)cc2c1OC(C(F)(F)F)C(C(=O)O)=C2 (stereo not drawn) [GIBH-1012, 6-chloro-8-(methyl-D3)-2-(trifluoromethyl)-2H-chromene-3-carboxylic acid] | > 100 µM | > 100 µM | > 100 µM | – | – | – | 110.7% | 38900 ng·h/mL | – | – | – | – | Cmax ([3]; single dose 2.5 mg/kg): 8945 ng/mL; Tmax ([3]; single dose 2.5 mg/kg): 0.5 h; t½ ([3]; single dose 2.5 mg/kg): 3.37 h
– | – | – | – | – | – | [2H]C([2H])([2H])c1cc2c(c(C([2H])([2H])[2H])c1)OC(C(F)(F)F)C(C(=O)O)=C2 (stereo not drawn) [GIBH-1016, 6,8-(dimethyl-D6)-2-(trifluoromethyl)-2H-chromene-3-carboxylic acid] | > 100 µM | – | > 100 µM | – | – | – | 65.1% | 4330 ng·h/mL | 0.94 L/kg | 4400 ng/mL | 0.187 h | 1.04 h | IC50 (ovine COX-1): > 100 µM
– | – | – | – | – | – | [2H]C([2H])([2H])c1cc(Cl)c2c(c1)C=C(C(=O)O)C(C(F)(F)F)O2 (stereo not drawn) [GIBH-1018, 8-chloro-6-(methyl-D3)-2-(trifluoromethyl)-2H-chromene-3-carboxylic acid] | 78.9 µM | > 100 µM | > 100 µM | – | – | – | 90.6% | 28300 ng·h/mL | 0.31 L/kg | 11800 ng/mL | 0.271 h | 2.43 h | –
– | – | – | – | – | – | [2H]C([2H])([2H])c1c(Br)c2c(c(C([2H])([2H])[2H])c1Br)C=C(C(=O)O)C(C(F)(F)F)O2 (stereo not drawn) [GIBH-1051, 6,8-dibromo-5,7-(dimethyl-D6)-2-(trifluoromethyl)-2H-chromene-3-carboxylic acid] | > 100 µM | 5.45 µM | 70.6 µM | – | – | 0.0841 µM | 63.7% | 13000 ng·h/mL | 1.004 L/kg | 4480 ng/mL | 0.688 h | 1.76 h | –

SMILES | Vd ([3]; single dose 10 mg/kg) | Cmax ([3]; single dose 10 mg/kg) | Tmax ([3]; single dose 10 mg/kg) | t½ ([3]; single dose 10 mg/kg) | BA ([3]; single dose 10 mg/kg) | AUC [3, 10] | IC50 [1] | IC50 (ovine COX-1; [4]) | IC50 [2] | IC50 [1, 8] | IC50 [2, 9] | IC50 (human recombinant COX-2) | BA ([3]; single dose 2.5 mg/kg) | AUC [3, 11] | Vd ([3]; single dose 2.5 mg/kg) | Cmax [3, 12] | Tmax [3, 13] | half-life [3, 11] | also measured
[2H]C([2H])([2H])c1cc(Br)cc2c1OC(C(F)(F)F)C(C(=O)O)=C2 (stereo not drawn) [GIBH-1014, 6-bromo-8-(methyl-D3)-2-(trifluoromethyl)-2H-chromene-3-carboxylic acid] | 0.53 L/kg | 35300 ng/mL | 0.417 h | 5.2 h | 107.4% | 143000 ng·h/mL | 45.2 µM | 31.8 µM | > 100 µM | – | – | 0.0368 µM | – | – | – | – | – | – | selectivity to the inhibition of COX-2 enzyme of blood cells ([1]; human whole blood COX enzyme activity test): better selectivity; ratio of the selectivity to COX-2 to the selectivity to COX-1 (human recombinant COX-2; from enzyme IC50 values COX-1/COX-2): 862
